In ChEMBL document CHEMBL3091286 (Bioorg Med Chem, 2013):

Experiment: Displacement of [3H]-quipazine from 5-HT3 receptor in mouse/rat NG108-15 cells
Assay type: cell-based

In the case of `O=C1c2cccc3c2[C@H](CCC3)CN1[C@@H]1CN2CCC1CC2` [PALONOSETRON], the pKi is reported as 10.5.
